Data on 31 substances can be found in patent US20120016009A1, “Optimized Methods For Delivery Of DSRNA Targeting The PCSK9 Gene” (priority 2008, published 2012).

In this data set the test system is PCSK9 mRNA. Description: In vitro screening of modified dsRNAs targeted to PCSK9 (Table 2b; cell type not given). In kind it is cell-based. The note with it: 30 nM siRNA. In a few lines:
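Activity is reported as percent PCSK9 transcript remaining versus an unrelated control duplex, from eight datapoints per siRNA. Knockdown was read by Quantigene branched-DNA assay with GAPDH normalization 24 h after lipofectamine 2000 transfection of 30 nM siRNA.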

In the oligonucleotide strings, read from the 5' end, every base follows the letter of its sugar. An asterisk marks phosphorothioate; unmarked linkages are phosphodiester. Other units and linkages are bracketed, terminal groups are in braces. A string of capitals states the bases alone. e = 2'-O-(2-methoxyethyl) (MOE); d = 2'-deoxy (DNA); m = 2'-O-methyl; r = 2'-OH (RNA); {P} = phosphate; f = 2'-fluoro

In the case of “AD-12372: modified dsRNA, SEQ ID NO:1441/1442 (chain 1 GCCUGGAGUUUAUUCGGAATT; chain 2 {P}-mUfUmCfCmGfAmAfUmAfAmAfCmUfCmCfAmGfGmC*fC*mU; chain 1: DNA at T, 2'-MOE at CU, RNA at AG, linkages o19 s1 (s phosphorothioate, o phosphodiester), methylation of C and T or U not given here)”, the “Remaining mRNA in % of controls at siRNA conc. of 30 nM” value (“Remaining mRNA in % of controls” for short) was 60%.

As to “AD-12373: modified dsRNA, SEQ ID NO:1443/1444 (chain 1 GCCUGGAGUUUAUUCGGAATT; chain 2 rUrUrCrCrGrArArUrArArArCrUrCrCrArGrGrCdT*dT; chain 1: DNA at T, 2'-MOE at CU, RNA at AG, linkages o19 s1 (s phosphorothioate, o phosphodiester), methylation of C and T or U not given here)”, the “Remaining mRNA in % of controls” value stood at 55%. For “AD-12374: modified dsRNA, SEQ ID NO:1445/1446 (chain 1 rGfCfCfUrGrGrArGfUfUfUrAfUfUfCrGrGrArAdT*dT; chain 2 fUfUfCfCrGrArAfUrArArAfCfUfCfCrArGrGfCdT*dT)”, the “Remaining mRNA in % of controls” value is 9%. For the substance “AD-12375: modified dsRNA, SEQ ID NO:1447/1448 (chain 1 rGfCfCfUrGrGrArGfUfUfUrAfUfUfCrGrGrArAdT*dT; chain 2 rUrUrCrCrGrArArUrArArArCrUrCrCrArGrGrCdT*dT)”, the “Remaining mRNA in % of controls” value was found to be 16%. For “AD-12377: modified dsRNA, SEQ ID NO:1449/1450 (chain 1 rGfCfCfUrGrGrArGfUfUfUrAfUfUfCrGrGrArAdT*dT; chain 2 mUrUmCrCrGrArAmUrArArArCrUmCmCrArGrGrCdT*dT)”, the “Remaining mRNA in % of controls” value worked out at 88%.

As for “AD-12378: modified dsRNA, SEQ ID NO:1451/1452 (chain 1 rGfCfCfUrGrGrArGfUfUfUrAfUfUfCrGrGrArAdT*dT; chain 2 rUrUrCrCrGmAmArUrAmAmArCrUrCrCrAmGmGmC*mC*mU)”, the “Remaining mRNA in % of controls” value is 6%. For the substance “AD-12379: modified dsRNA, SEQ ID NO:1453/1454 (chain 1 rGfCfCfUrGrGrArGfUfUfUrAfUfUfCrGrGrArAdT*dT; chain 2 rUrUrCrCrGrArArUrArArArCrUrCrCrArGrGrC*mC*mU)”, the “Remaining mRNA in % of controls” value came to 6%. For “AD-12380: modified dsRNA, SEQ ID NO:1455/1456 (chain 1 rGfCfCfUrGrGrArGfUfUfUrAfUfUfCrGrGrArAdT*dT; chain 2 {P}-mUfUmCfCmGfAmAfUmAfAmAfCmUfCmCfAmGfGmC*fC*mU)”, the “Remaining mRNA in % of controls” value came to 8%.

“AD-12381: modified dsRNA, SEQ ID NO:1457/1458 (chain 1 rGfCfCfUrGrGrArGfUfUfUrAfUfUfCrGrGrArAdT*dT; chain 2 {P}-mUfUmCfCmGfAmAfUmAfAmAfCmUfCmCfAmGfGmCdT*dT)”: the “Remaining mRNA in % of controls” value is recorded as 10%. As to “AD-12382: modified dsRNA, SEQ ID NO:1459/1460 (chain 1 rGfCfCfUrGrGrArGfUfUfUrAfUfUfCrGrGrArAdT*dT; chain 2 {P}-fUfUfCfCrGrArAfUrArArAfCfUfCfCrArGrGfCdT*dT)”, the “Remaining mRNA in % of controls” value came out at 7%. With “AD-12383: modified dsRNA, SEQ ID NO:1461/1462 (chain 1 rGrCrCrUrGrGrArGrUrUrUrArUrUrCrGrGrArAdT*dT; chain 2 {P}-fUfUfCfCrGrArAfUrArArAfCfUfCfCrArGrGfCdT*dT)”, the “Remaining mRNA in % of controls” value was 7%. The same measure for “AD-12384: modified dsRNA, SEQ ID NO:1463/1464 (chain 1 rGmCmCmUrGrGrArGmUmUmUrAmUmUmCrGrGrArAdT*dT; chain 2 {P}-fUfUfCfCrGrArAfUrArArAfCfUfCfCrArGrGfCdT*dT)”: 8%; for “AD-12385: modified dsRNA, SEQ ID NO:1465/1466 (chain 1 GCCUGGNAGUUUAUUCGGAATT; chain 2 {P}-fUfUfCfCrGrArAfUrArArAfCfUfCfCrArGrGfCdT*dT; chain 1: chemistry not given here; further chemistry not fully specified)”: 8%; for “AD-12386: modified dsRNA, SEQ ID NO:1467/1468 (chain 1 fGmCfCmUfGmGfAmGfUmUfUmAfUmUfCmGfGmAfA; chain 2 {P}-fUfUfCfCrGrArAfUrArArAfCfUfCfCrArGrGfCdT*dT)”: 11%. As to “AD-12387: modified dsRNA, SEQ ID NO:1469/1470 (chain 1 rGfCfCfUrGrGrArGrGfUfUfUrAfUfUfCrGrGrArA; chain 2 fUfUfCfCrGrArAfUrArArAfCfUfCfCrArGrGfC*fC*fU)”, the “Remaining mRNA in % of controls” value was 13%. Take “AD-12388: modified dsRNA, SEQ ID NO:1471/1472 (chain 1 rGfCfCfUrGrGrArGrGfUfUfUrAfUfUfCrGrGrArA; chain 2 {P}-mUfUmCfCmGfAmAfUmAfAmAfCmUfCmCfAmGfGmC)”: the “Remaining mRNA in % of controls” value was determined as 19%.

As to “AD-12389: modified dsRNA, SEQ ID NO:1473/1474 (chain 1 rGfCfCfUrGrGrArGrGfUfUfUrAfUfUfCrGrGrArA; chain 2 {P}-mUfUmCfCmGfAmAfUmAfAmAfCmUfCmCfAmGfGmC*fC*mU)”, the “Remaining mRNA in % of controls” value was found to be 16%. As for “AD-12390: modified dsRNA, SEQ ID NO:1475/1476 (chain 1 rGfCfCfUrGrGrArGrGfUfUfUrAfUfUfCrGrGrArA; chain 2 rUrUrCrCrGrArArUrArArArCrUrCrCrArGrGrC*mC*mU)”, the “Remaining mRNA in % of controls” value worked out at 17%.

Regarding “AD-12391: modified dsRNA, SEQ ID NO:1477/1478 (chain 1 rGfCfCfUrGrGrArGrGfUfUfUrAfUfUfCrGrGrArA; chain 2 rUrUrCrCrGmAmArUrAmAmArCrUrCrCrAmGmGmC)”, the “Remaining mRNA in % of controls” value is 21%. Under “AD-12392: modified dsRNA, SEQ ID NO:1479/1480 (chain 1 rGfCfCfUrGrGrArGrGfUfUfUrAfUfUfCrGrGrArA; chain 2 rUrUrCrCrGrArArUrArArArCrUrCrCrArGrGrCdT*dT)” stands 28%.

With “AD-12393: modified dsRNA, SEQ ID NO:1481/1482 (chain 1 rGfCfCfUrGrGrArGrGfUfUfUrAfUfUfCrGrGrArA; chain 2 rUrUrCrCrGrArAmUrArArArCrUrCmCrArGrGrCdT*dT)”, the “Remaining mRNA in % of controls” value is 17%.

For “AD-12394: modified dsRNA, SEQ ID NO:1483/1484 (chain 1 rGfCfCfUrGrGrArGrGfUfUfUrAfUfUfCrGrGrArA; chain 2 mUrUmCrCrGrArAmUrArArArCrUmCmCrArGrGrCdT*dT)”, the “Remaining mRNA in % of controls” value worked out at 75%. The same measure for “AD-12395: modified dsRNA, SEQ ID NO:1485/1486 (chain 1 GCCUGGAGUUUAUUCGGAATT; chain 2 {P}-fUfUfCfCrGrArAfUrArArAfCfUfCfCrArGrGfC*fC*fU; chain 1: sugars from the 5' end rerererererererererdd, linkages o19 s1 (s phosphorothioate, o phosphodiester), methylation of C not given here)”: 55%; for “AD-12396: modified dsRNA, SEQ ID NO:1487/1488 (chain 1 GCCUGGAGUUUAUUCGGAA; chain 2 UUCCGAAUAAACUCCAGGCCU; chemical modifications, chemistry not fully specified)”: 59%; for “AD-12397: modified dsRNA, SEQ ID NO:1489/1490 (chain 1 fGmCfCmUfGmGfAmGfUmUfUmAfUmUfCmGfGmAfA; chain 2 {P}-fUfUfCfCrGrArAfUrArArAfCfUfCfCrArGrGfC*fC*fU)”: 20%. Consider “AD-12398: modified dsRNA, SEQ ID NO:1491/1492 (chain 1 fGmCfCmUfGmGfAmGfUmUfUmAfUmUfCmGfGmAfAdT*dT; chain 2 {P}-fUfUfCfCrGrArAfUrArArAfCfUfCfCrArGrGfC*fC*fU)”, for which the “Remaining mRNA in % of controls” value was 11%.

On to “AD-12399: modified dsRNA, SEQ ID NO:1493/1494 (chain 1 GCCUGGNAGUUUAUUCGGAATT; chain 2 {P}-fUfUfCfCrGrArAfUrArArAfCfUfCfCrArGrGfC*fC*fU; chain 1: chemistry not given here; further chemistry not fully specified)”, for which the “Remaining mRNA in % of controls” value amounted to 13%. Regarding “AD-12400: modified dsRNA, SEQ ID NO:1495/1496 (chain 1 rGrCrCrUrGrGrArGrUrUrUrArUrUrCrGrGrArAdT*dT; chain 2 {P}-fUfUfCfCrGrArAfUrArArAfCfUfCfCrArGrGfC*fC*fU)”, the “Remaining mRNA in % of controls” value worked out at 12%. As for “AD-12401: modified dsRNA, SEQ ID NO:1497/1498 (chain 1 rGmCmCmUrGrGrArGmUmUmUrAmUmUmCrGrGrArAdT*dT; chain 2 {P}-fUfUfCfCrGrArAfUrArArAfCfUfCfCrArGrGfC*fC*fU)”, the “Remaining mRNA in % of controls” value is recorded as 13%.

Regarding “AD-12402: modified dsRNA, SEQ ID NO:1499/1500 (chain 1 rGmCmCmUrGrGrArGmUmUmUrAmUmUmCrGrGrArA; chain 2 {P}-fUfUfCfCrGrArAfUrArArAfCfUfCfCrArGrGfC*fC*fU)”, the “Remaining mRNA in % of controls” value amounted to 14%.

For “AD-12403: modified dsRNA, SEQ ID NO:1501/1502 (chain 1 rGfCfCfUrGrGrArGrGfUfUfUrAfUfUfCrGrGrArA; chain 2 {P}-fUfUfCfCrGrArAfUrArArAfCfUfCfCrArGrGfC*fC*fU)”, the “Remaining mRNA in % of controls” value is recorded as 4%.
